# Results as given in US20200038415A1, “AMINOSTEROL COMPOSITIONS AND METHODS OF USING THE SAME FOR TREATING ERECTILE DYSFUNCTION” (Enterin, Inc., priority 2018, published 2020).
# Key:
# [1] = in vivo; cited from earlier work
# [2] = Pharmacokinetics of orally administered squalamine (ENT-01) in Stage 1; type: in vivo, human; settings: oral, active zwitterion
# Method: PK data were collected on the 10 patients enrolled in Stage 1 and 10 patients enrolled in Stage 2 to determine the extent of systemic absorption. In Stage 1, PK data were obtained at each visit, pre-medication, at 1, 2, 4, 8 and 24 hours (Table 10). In Stage 2, PK was measured on days 1 and 6 of the randomization period pre-medication, at 1, 2, 4 and 8 hours (Table 11).
# The mean Cmax, Tmax and T1/2 and AUC of the squalamine ion following squalamine (ENT-01) oral dosing for Stage 1 patients. The PK analyses are only approximate, as the lower limit of the validated concentration range was 10 ng/ml; most of the measured concentrations fell below that value. The mean Cmax, Tmax and T1/2 and AUC of the squalamine ion following squalamine (ENT-01) oral dosing for Stage 2 patients. The PK analyses are only approximate, as the lower limit of the validated concentration range was 0.5 ng/ml.
# mouse models of PD = settings: oral; mice with constipation due to overexpression of human αS (West et al, in preparation); cited from earlier work
# [3] = tested on: IPANs (intrinsic primary afferent neuron); settings: perfusion through lumen of isolated bowel segment, PD mouse model; cited from earlier work
# [4] = systemic administration; into the duodenum through the biliary tract (in mice); cited from earlier work
# [5] = prior studies, cited from earlier work
# [6] = cited from earlier work
SMILES,known pharmacological effects [1],systemic absorption [2],gastro-intestinal motility (mouse models of PD),effect on IPANs of the ENS [3],clearance and excretion [4],gastrointestinal motility after intravenous administration ([5]; intravenous),"systemic blood levels, intravenous versus orally administered [5]","well tolerated intravenous dose ([6]; dilactate salt, single and repeat intravenous administration, Phase 1 and Phase 2 trials)","drug related GI toxicology ([6]; published clinical trials, systemic administration)"
"CC(C)[C@@H](CC[C@@H](C)[C@H]1CC[C@H]2[C@@H]3[C@H](O)C[C@H]4C[C@@H](NCCCNCCCCNCCCN)CC[C@]4(C)[C@H]3CC[C@]12C)OS(=O)(=O)O [Aminosterol 1436, trodusquemine]",reduction in food intake and weight loss,–,–,–,–,–,–,–,–
CC(C)[C@@H](CC[C@@H](C)[C@H]1CC[C@H]2[C@@H]3[C@H](O)C[C@H]4C[C@@H](NCCCNCCCCN)CC[C@]4(C)[C@H]3CC[C@]12C)OS(=O)(=O)O [squalamine],"nausea, vomiting and/or reduced blood pressure",not significantly absorbed into the systemic circulation,stimulates gastro-intestinal motility,excitation of IPANs,cleared by the liver and excreted as the intact molecule,not associated with increased gastrointestinal motility,one thousand-fold greater,at least 300 mg/m^2,has not been reported
